Values of other authors in patent publication US12462914B2, “Systems and methods for dispensing a statin medication over the counter” (ASTRAZENECA UK LIMITED, priority 2016, dated 2025).

Settings: co-administration of warfarin with a single oral dose of atorvastatin

effect on the pharmacokinetics of atorvastatin: no significant effect
Structure (SMILES): CC(C)c1c(C(=O)Nc2ccccc2)c(-c2ccccc2)c(-c2ccc(F)cc2)n1CC[C@@H](O)C[C@@H](O)CC(=O)O [atorvastatin]
